{"source": "patent US20150104806A1", "about": "“Parkinson's Disease Biomarker” (University of Dundee, priority 2012, published 2015)", "molecules": {"B1": {"name": "parkin: human parkin protein expressed in E. coli, substrate of TcPINK1 (protein, UniProt O60260 1-465, looked up)", "E3 ubiquitin-protein ligase …": "MIVFVRFNSSHGFPVEVDSDTSIFQLKEVVAKRQGVPADQLRVIFAGKELRNDWTVQNCDLDQQSIVHIVQRPWRKGQEMNATGGDDPRNAAGGCEREPQSLTRVDLSSSVLPGDSVGLAVILHTDSRKDSPPAGSPAGRSIYNSFYVYCKGPCQRVQPGKLRVQCSTCRQATLTLTQGPSCWDDVLIPNRMSGECQSPHCPGTSAEFFFKCGAHPTSDKETSVALHLIATNSRNITCITCTDVRSPVLVFQCNSRHVICLDCFHLYCVTRLNDRQFVHDPQLGYSLPCVAGCPNSLIKELHHFRILGEEQYNRYQQYGAEECVLQMGGVLCPRPGCGAGLLPEPDQRKVTCEGGNGLGCGFAFCRECKEAYHEGECSAVFEASGTTTQAYRVDERAAEQARWEAASKETIKKTTKPCPRCHVPVEKNGGCMHMKCPQPQCRLEWCWNCGCEWNRVCMGDHWFDV", "modifications": "GST tag", "notes": "human parkin protein expressed in E. coli, substrate of TcPINK1"}}, "key": {"human PINK1 [1]": {"system": "human PINK1", "experiment": "PINK1 stabilisation, band-shift and Thr257 autophosphorylation in mitochondrial/cytoplasmic extracts of CCCP-treated Flp-In T-Rex HEK293 cells", "format": "cell-based", "description": "(§1) Flp-In T-Rex stable cell lines were cultured using DMEM (Dulbecco's modified Eagle's medium) supplemented with 10% FBS (Fetal Bovine Serum), 2 mM L-Glutamine, 1× Pen/Strep, 15 μg/ml of Blasticidin and 100 μg/ml of Hygromycin. Cell transfections of HA-parkin or untagged parkin were performed using the polyethyleneimine (PEI) method (Reed et al, 2006). Cultures were induced to express protein by addition of 0.1 μg/ml of Doxycycline in the medium for 24 hours. To uncouple mitochondria, cells were treated with 10 μM CCCP (Sigma) dissolved in DMSO for the indicated times. An equivalent volume of DMSO was used as a control.\nCells were lysed and fractionated by the indicated buffer and methods: Whole cell lysis using buffer: 50 mM Tris/HCl (pH 7.4), 1 mM EGTA, 1 mM EDTA, 1%(w/v) 1 mM sodium orthovanadate, 10 mM sodium β-glycerophosphate, 50 mM NaF, 5 mM sodium pyrophosphate, 0.27M sucrose, 1 mM benzamidine and 2mMPMSF and 1%(v/v) Triton X-100. Lysates were clarified by centrifugation at 13,000 rpm for 10 min at 4° C. and the supernatant was collected. Mitochondrial fractionation: cells were lysed in buffer containing 250 mM sucrose, 20 mM HEPES, 3 mM EDTA, 1%(w/v) 1 mM sodium orthovanadate, 10 mM sodium β-glycerophosphate, 50 mM NaF, 5 mM sodium pyrophosphate, pH 7.5 and protease inhibitor cocktail (Roche) at 4° C. Cells were disrupted using a glass hand held homogeniser (20 passes) and the lysate was clarified by centrifuging for 10 min at 800 g at 4° C. The supernatant was further centrifuged at 16,600 g for 10 min. The resultant supernatant served as the cytosolic fraction. The pellet containing the mitochondrial fraction was resuspended in buffer containing 1% Triton X-100 and centrifuged at 13,000 rpm for 10 min. This supernatant contained solubilized mitochondrial proteins. All lysates were snap-frozen at −80° C. until use. Protein concentration was determined using the Bradford method (Thermo Scientific) with BSA as the standard.\nImmunoprecipitation of recombinant PINK1-FLAG was undertaken by standard methods with anti-FLAG agarose beads (Sigma); of HA-parkin with anti-HA agarose beads (Sigma); and of untagged parkin with anti-parkin antibody (S966C) covalently conjugated to protein G-Sepharose. Immunoprecipitates, as well as cell lysates in SDS sample buffer were subjected to SDS-PAGE and transferred to PVDF membranes. For immunoblotting, membranes were incubated for 60 mins with 1% TBST containing either 5% (wt/vol) skimmed milk powder (for total antibodies) or 5% (wt/vol) BSA (for phospho-specific antibodies). The antibodies were then incubated in the same buffer overnight at 4° C. with the indicated primary antibodies. Sheep total and phospho-specific antibodies were used at a concentration of 1 μg/ml, whereas commercial antibodies were diluted 1000-fold. The incubation with phospho-specific sheep antibodies was performed with the addition of 10 μg/ml of the dephosphopeptide antigen used to raise the antibody. Blots were washed with 0.1% TBST and incubated with secondary HRP-conjugated antibodies in 5% skimmed milk for 60 mins. After repeated washes, the signal was detected with the enhanced chemiluminescence and the X-ray films were processed in a Konica Minolta Medical SRX-101 film processor.\n10 mg of mitochondrial extract from Flp-In T-Rex HEK 293 cell lines stably PINK1-FLAG were subjected to immunoprecipitation with anti-FLAG-agarose and then eluted in LDS sample buffer. […]"}, "human PINK1 [2]": {"system": "human PINK1", "experiment": "Parkin Ser65 phosphorylation in Flp-In T-Rex HEK293 cells expressing PINK1-FLAG after CCCP stimulation", "format": "cell-based", "description": "as §1\nCells were lysed and fractionated by the indicated buffer and methods: Whole cell lysis using buffer: 50 mM Tris/HCl (pH 7.4), 1 mM EGTA, 1 mM EDTA, 1%(w/v) 1 mM sodium orthovanadate, 10 mM sodium β-glycerophosphate, 50 mM NaF, 5 mM sodium pyrophosphate, 0.27M sucrose, 1 mM benzamidine and 2mMPMSF and 1%(v/v) Triton X-100. Lysates were clarified by centrifugation at 13,000 rpm for 10 min at 4° C. and the supernatant was collected. […] Protein concentration was determined using the Bradford method (Thermo Scientific) with BSA as the standard. […]"}, "human PINK1 [3]": {"system": "human PINK1", "experiment": "Immunoprecipitation kinase assay of mitochondrial PINK1-FLAG from CCCP-treated HEK293 cells with GST-parkin Ubl (1-108) substrate", "format": "cell-based", "description": "(§2) In assays utilising E. coli expressed wild-type or kinase dead (D359A) MBP-TcPINK1, reactions were set up in a volume of 40 μl, with substrates at 1 μg and kinase at 0.5 μg in 50mMTris-HCl (pH 7.5), 0.1 mM EGTA, 10 mM MgCl2, 2 mM dithiothreitol (DTT) and 0.1 mM [γ-^32P] ATP (approximately 500 cpm/pmol). Assays were incubated at 30° C. with shaking at 1200 rpm and terminated after the indicated time by addition of SDS sample buffer. In mammalian HEK293 immunoprecipitation kinase assays, C-terminal-FLAG tagged wild-type or kinase dead (D384A) PINK1 was immunoprecipitated from 5 mg of mitochondrial enriched extracts using anti-FLAG agarose beads and activity measured in a reaction volume of 40 μl consisting of 50 mM Tris-HCl (pH 7.5), 0.1 mM EGTA, 10 mM MgCl2, 2 mM DTT, 0.1 mM [γ-^32P] ATP (2000cpm/pmol) and 5 μg of indicated substrate. Assays were incubated at 30° C. with shaking at 1200 rpm and terminated after 30 min by addition of SDS sample buffer. For all assays, reaction mixtures were resolved by SDS-PAGE. Proteins were detected by Coomassie staining and gels were imaged using an Epson scanner and dried completely using a gel dryer (Bio-Rad). Incorporation of [γ-32P] ATP into substrates was analysed by autoradiography using Amersham Hyper-Film ECL."}, "PINK1": {"target": "T1, PINK1 (Homo sapiens, UniProt Q9BXM7)", "T1 construct": "expressed in transfected cells; host or cells: Flp-In T-Rex HEK293; anti-FLAG immunoprecipitate of mitochondrial enriched extract", "T1 sequence (Q9BXM7 whole entry)": "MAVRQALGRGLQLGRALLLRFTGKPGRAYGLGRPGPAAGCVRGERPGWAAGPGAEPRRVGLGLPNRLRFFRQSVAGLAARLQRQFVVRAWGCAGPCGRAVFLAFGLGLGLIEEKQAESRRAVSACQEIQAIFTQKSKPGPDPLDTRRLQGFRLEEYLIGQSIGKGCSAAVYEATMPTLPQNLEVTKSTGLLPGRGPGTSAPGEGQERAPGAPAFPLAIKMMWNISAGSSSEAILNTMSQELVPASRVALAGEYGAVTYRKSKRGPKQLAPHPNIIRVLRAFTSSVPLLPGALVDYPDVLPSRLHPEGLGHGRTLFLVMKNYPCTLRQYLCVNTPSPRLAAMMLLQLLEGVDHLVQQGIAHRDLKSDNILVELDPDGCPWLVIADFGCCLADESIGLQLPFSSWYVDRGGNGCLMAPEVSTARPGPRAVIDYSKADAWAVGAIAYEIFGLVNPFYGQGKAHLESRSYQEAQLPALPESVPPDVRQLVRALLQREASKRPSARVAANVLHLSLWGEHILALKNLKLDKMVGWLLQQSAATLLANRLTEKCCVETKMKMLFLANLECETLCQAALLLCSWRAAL", "experiment": "Lambda phosphatase assay of immunoprecipitated PINK1 followed by in vitro kinase assay", "format": "biochemical", "conditions": "50 mM EDTA with 1000U lambda phosphatase", "description": "Wild-type PINK1 was incubated with or without 1000U of Lambda phosphatase (NEB) in a reaction volume of 40 μl consisting of 50 mM Tris pH 7.5, 1 mM MnCl2 and 2 mM DTT. In addition wild-type PINK1 was treated with 1000U of lambda phosphatase in the presence of 50 mM EDTA. Assays were incubated at 30° C. for 30 min with shaking at 1200 rpm. The beads were washed three times in 50 mM Tris pH7.5, 0.1 mM EGTA and then utilized in an in vitro kinase assay with GST-parkin UBL (1-108) as the substrate. Samples were further analyzed as described above."}, "TcPINK1": {"target": "T2, TcPINK1 (Tribolium castaneum, UniProt D6WMX4)", "T2 construct": "full-length MBP-fusion of wild type TcPINK1 (1-570); made in house; host or cells: E. coli BL21 Codon+", "T2 sequence (D6WMX4 1-570)": "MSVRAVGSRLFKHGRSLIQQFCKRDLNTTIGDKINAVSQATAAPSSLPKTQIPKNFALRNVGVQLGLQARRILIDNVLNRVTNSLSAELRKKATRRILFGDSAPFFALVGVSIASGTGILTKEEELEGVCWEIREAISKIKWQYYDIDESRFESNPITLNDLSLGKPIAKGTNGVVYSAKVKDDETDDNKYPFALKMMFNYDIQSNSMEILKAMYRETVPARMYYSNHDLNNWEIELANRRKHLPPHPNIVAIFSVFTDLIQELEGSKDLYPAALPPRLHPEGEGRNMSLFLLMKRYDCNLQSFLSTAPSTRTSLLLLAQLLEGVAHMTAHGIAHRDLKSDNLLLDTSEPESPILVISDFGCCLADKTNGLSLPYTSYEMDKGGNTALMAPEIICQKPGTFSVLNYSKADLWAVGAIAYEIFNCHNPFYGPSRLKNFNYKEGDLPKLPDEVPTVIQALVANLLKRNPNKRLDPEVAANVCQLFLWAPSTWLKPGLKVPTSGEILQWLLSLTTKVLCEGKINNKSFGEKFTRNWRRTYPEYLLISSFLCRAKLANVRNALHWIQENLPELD", "experiment": "In vitro phosphorylation of substrates by TcPINK1", "format": "biochemical, insect", "conditions": "time course, GST-parkin, [γ-32P] ATP", "description": "as §2"}}, "data": [{"molecule": "N#CC(C#N)=NNc1cccc(Cl)c1", "note": "[CCCP, carbonyl cyanide m-chlorophenyl hydrazone]", "values": [{"measurement": "levels of full-length PINK1 associated with the mitochondria", "setting": "human PINK1 [1]; 3 hour CCCP treatment", "result": "marked increase"}, {"measurement": "phosphorylation of PINK1 at Thr257", "setting": "human PINK1 [1]; CCCP 3 hours, wild type but not kinase-inactive PINK1, phosphospecific Thr257 antibody", "result": "markedly stimulated"}, {"measurement": "time to loss of the cleaved form of PINK1 in the cytosol", "setting": "human PINK1 [1]; CCCP time course, cytoplasmic extracts", "result": "≤ 5", "unit": "min"}, {"measurement": "time to significant stabilisation of full-length PINK1 at the mitochondria", "setting": "human PINK1 [1]; CCCP time course, mitochondrial extracts", "result": "≤ 5", "unit": "min"}, {"measurement": "time to maximal stabilisation of full-length PINK1 at the mitochondria", "setting": "human PINK1 [1]; CCCP time course, mitochondrial extracts, sustained for up to 3 hours", "result": "≤ 40", "unit": "min"}, {"measurement": "time at which parkin Ser65 phosphorylation occurs", "setting": "human PINK1 [2]; 10 μM CCCP time course, phospho-Ser65 antibody", "result": 5, "unit": "min"}, {"measurement": "parkin phosphorylation at Ser65", "setting": "human PINK1 [2]; 10 μM CCCP, 3 hours, HEK293 cells expressing human wild-type PINK1, phospho-specific antibody", "result": "induced"}, {"measurement": "time of PINK1 activation (immunoprecipitated mitochondrial PINK1 phosphorylating parkin in vitro)", "setting": "human PINK1 [3]; CCCP time course", "result": "around 40 mins"}, {"measurement": "time of maximal PINK1 activation (immunoprecipitated mitochondrial PINK1 phosphorylating parkin in vitro)", "setting": "human PINK1 [3]; CCCP time course", "result": 3, "unit": "h"}, {"measurement": "activation of human PINK1 (ability to phosphorylate parkin Ubl domain at Ser65 in vitro)", "setting": "human PINK1 [3]; PINK1 isolated from CCCP-treated vs non-treated cells", "result": "inducing the activation"}]}, {"molecule": "O=C(O)CN(CCN(CC(=O)O)CC(=O)O)CC(=O)O", "note": "[EDTA]", "values": [{"measurement": "effect on lambda phosphatase-induced dephosphorylation of Thr257 and loss of ability of PINK1 to phosphorylate parkin", "setting": "PINK1", "result": "prevented"}]}, {"molecule": "B1", "values": [{"measurement": "maximal stoichiometry of phosphorylation by TcPINK1", "setting": "TcPINK1", "result": "−0.25 moles of 32P-phosphate per mol"}]}]}
